One assay relates to VDAC2. Put plainly: Affinity bead pull down from zebrafish embryo lysate with mass spectrometry. The assay is classed as binding. The conditions noted are these: zebrafish embryonic lysate, affinity agarose beads. The procedure: For pull down assays mono-N-Boc protected 2,2′-(ethylenedioxy)bis(ethylamine) was attached to the carboxylic ester of efsevin and its derivatives through the amide bond. After removal of the Boc group using TFA, the primary amine was coupled to the carboxylic acid of Affi-Gel 10 Gel (Biorad). Two-day-old zebrafish embryos were deyolked by centrifugation before being lysed with Rubinfeld's lysis buffer (Rubinfeld et al., 1993, Science 262, 1731-1734). The lysate was precleaned by incubation with Affi-Gel 10 Gel to eliminate non-specific binding. Precleaned lysate was incubated with affinity beads overnight. Proteins were eluted from the affinity beads and separated on SDS-PAGE. Protein bands of interest were excised. Gel plugs were dehydrated in acetonitrile (ACN) and dried completely in a Speedvac. Samples were reduced and alkylated with 10 mM dithiotreitol and 10 mM TCEP solution in 50 mM NH4HCO3 (30 min at 56° C.) and 100 mM iodoacetamide (45 min in dark), respectively. Gel plugs were washed with 50 mM NH4HCO3, dehydrated with ACN, and dried down in a Speedvac. Gel pieces were then swollen in digestion buffer containing 50 mM NH4HCO3, and 20.0 ng/μL of chymotrypsin (25° C., overnight). Peptides were extracted with 0.1% TFA in 50% ACN solution, dried down and resuspended in LC buffer A (0.1% formic acid, 2% ACN).
Extracted peptides were analyzed by nano-flow LC/MS/MS on a Thermo Orbitrap with dedicated Eksigent nanopump using a reversed phase column (New Objective). The flow rate was 200 nL/min for separation: mobile phase A contained 0.1% formic acid, 2% ACN in water, and mobile phase B contained 0.1% formic acid, 20% water in ACN. The gradient used for analyses was linear from 5% B to 50% B over 60 min, then to 95% B over 15 min, and finally keeping constant 95% B for 10 min. Spectra were acquired in data-dependent mode with dynamic exclusion where the instrument selects the top six most abundant ions in the parent spectra for fragmentation. […]

For the next assay, the system named is V1/V3 DKO MEFs. Description: Mitochondria Ca2+ uptake assay in VDAC1/VDAC3 double knockout MEFs. The assay is classed as cell-based. As to the method: V1/V3 DKO MEFs were cultured as previously described (Roy et al., 2009a, EMBO Rep 10, 1341-1347). Efsevin-treated (15 μM for 30 min) or mock-treated MEFs were used for measurements of [Ca^2+]c in suspensions of permeabilized cells or imaging of [Ca^2+]m simultaneously with [Ca^2+]c in intact single cells. Permeabilization of the plasma membrane was performed by digitonin ([…]). Changes in [Ca^2+] in the cytoplasmic buffer upon IP3 (7.5 μM) addition in the presence or absence of ruthenium red (3 μM) was measured by fura2 in a fluorometer (Csordas et al., 2006, J Cell Biol 174, 915-921; Roy et al., 2009b, Mol Cell 33, 377-388). To avoid endoplasmic reticulum Ca^2+ uptake 2 μM thapsigargin was added before IP3. For imaging of [Ca^2+]m and [Ca^2+]c, MEFs were co-transfected with plasmids encoding polycistronic zebrafish VDAC2 with mCherry and mitochondria-targeted inverse pericam for 40 hours. Cells were sorted to enrich the transfected cells and attached to glass coverslips. In the final 10 min, of the efsevin or mock-treatment, the cells were also loaded with fura2AM (2.5μ[…]) and subsequently transferred to the microscope stage. Stimulation with 1 μM ATP was carried out in a norminally Ca^2+ free buffer. […]

In the case of `CCOC(=O)C1=CCN(S(=O)(=O)c2ccc(C)cc2)C1c1ccccc1` (stereo not drawn) [efsevin], the “pull down of the 32 kD band (VDAC2)” value in the assay on VDAC2 is reported as “pulled down”. For the same compound, in the assay with V1/V3 DKO MEFs (intact V1/V3 DKO MEFs, stimulation with ATP), the “transfer of Ca2+ released from intracellular stores into mitochondria” value is “accelerated the transfer of Ca^2+”. In the assay with V1/V3 DKO MEFs (permeabilized V1/V3DKO MEFs, efsevin 15 μM for 30 min, 7.5 μM IP3), the “Ca2+ transferred into mitochondria during IP3-induced Ca2+ release” value is on record as “increased the amount of Ca^2+ transferred into mitochondria”.

The record behind these values is US12378193B2, “Anti-arrhythmicity agents” (The Regents of the University of California, priority 2014, dated 2025).
